This test has as its system male Wistar rats. The experiment in a line: MK-801-induced persistent latent inhibition (LI), thirst motivated conditioned emotional response procedure. The test is classed as in vivo, rat. The source says:
Latent inhibition (“LI”) is the process whereby pre-exposure to a stimulus retards conditioning to this stimulus when it is subsequently paired with reinforcement, and it has been used extensively to model cognitive impairments in schizophrenia. […] Briefly, amphetamine disrupts LI in rats and normal humans, and this is paralleled by disrupted LI in acute schizophrenia patients. Amphetamine-induced LI disruption is reversed by both typical and atypical APDs.
The rats used were male Wistar rats approximately five months old, weighing 350 g to 500 g.
Rats were tested in Campden Instruments rodent test chambers with a retractable bottle. When the bottle was not present, the hole was covered by a metal lid. Licks were detected by a Campden Instruments drinkometer. The preexposed to-be-conditioned stimulus was a 10 sec, 80 dB, 2.8 kHz tone produced by a Sonalert module. Shock was supplied through the floor by a Campden Instruments shock generator and shock scrambler set at 0.5 mA and 1 sec duration. Equipment programming and data recording were computer controlled.
LI was measured in a thirst motivated conditioned emotional response (“CER”) procedure by comparing the suppression of drinking to a tone previously paired with a foot shock in rats that received non-reinforced exposure to the tone prior to conditioning (preexposed) and in rats for whom the tone was novel (non-preexposed).
Prior to the beginning of each LI experiment, rats were handled for about 2 min daily for 8 days. On day 9, a 23 h water restriction schedule was initiated and continued throughout the experiment. After 5 days of deprivation (days 9-13), rats were trained to drink in the experimental chambers for the next 5 days (days 14-18), for 20 min during the 1st day and for 15 min per day during each of the next 4 days. Water in the test apparatus was given in addition to the daily ration of 1 h given in the home cages. The LI procedure was conducted on days 19-22 and consisted of the following stages:
With the bottle removed, the preexposed (“PE”) rats received 40 tone presentations with an inter-stimulus interval of 50 sec. The nonpreexposed (“NPE”) rats were confined to the chamber for an identical period of time without receiving the tone.
With the bottle removed, each rat received 5 tone-shock pairings given 5 min apart. Shock immediately followed tone termination. The first tone-shock pairing was given 5 min after the start of the session. After the last pairing, rats were left in the experimental chamber for an additional 5 min. […]
Each rat was placed in the chamber and allowed to drink from the bottle. […] The following times were recorded: Time to first lick, time to complete licks 1-50, time to complete licks 51-75 (before tone onset) and time to complete licks 76-100 (after tone onset). […]

Entries after “also recorded” stand apart in the source; their conditions may differ.

For `C[C@]12N[C@H](Cc3ccccc31)c1ccccc12` [MK-801, dizocilpine, reference compound], for the setting “MK-801 0.05 mg/kg i.p. 30 min before conditioning, vehicle pretreatment, 40 preexposures, 5 conditioning trials”, the “LI (difference between preexposed and nonpreexposed groups in log times to complete licks 76-100)” value is “significant difference between the preexposed and nonpreexposed groups, namely, LI; also recorded: persisted in showing LI”.
Consider “R(+)-6-(N-methyl, N-ethyl-carbamoyloxy)-N′-propargyl-1-aminoindan ½ tartrate [ladostigil tartrate]”, for which the “LI / reversal of abnormally persistent LI in MK-801-treated rats” value (25 mg/kg ladostigil tartrate p.o. chronic + MK-801 0.05 mg/kg i.p.) was “reversed abnormally persistent LI”. Also, the “LI (difference between preexposed and nonpreexposed groups in log times to complete licks 76-100)” value (37.5 mg/kg ladostigil tartrate p.o. chronic + MK-801 0.05 mg/kg i.p.) was “significant difference between the preexposed and nonpreexposed groups, namely, LI”. Further, the “Effect on LI of drug on its own” value (ladostigil tartrate 25 mg/kg and 37.5 mg/kg p.o. chronic + saline (no MK-801)) is given as “had no effect”.
